Test results: patent US7977403B2, “Antiseptic containing silicone elastomers” (Bayer Innovation GmbH, priority 2006, dated 2011)

Tested on: L 929 mouse fibroblast cells
Assay: Biocompatibility (cytotoxicity) test of material extract, DIN ISO 10993-5
Format: cell-based
Details: final concentration 1%, 48 h
Method: Biocompatibility Tests as Specified in DIN ISO 10993-5 (1999), EN 30993-5 (1994) The catheter shafts from Example 13 were for this purpose extracted non-sterile at 37° C. and 5% pCO2 in extraction medium (DMEM including antibiotics without FCS) for 24 h. The surface-volume ratio was 1 cm^2/ml of extraction medium. After completion of the extraction, the extraction medium was sterilized by filtration and supplemented with sterile FCS (final concentration: 10% FCS in the extraction medium). The FCS-supplemented extraction medium was put sterile on precultured L 929 mouse fibroblast cells and incubated at 37° C., 5% pCO2 for 48 h. The extract was subjected to quadruplicate parallel testing. Triton X 100 was added to the L929 cells used as toxic positive control (final concentration 1%). Cell culture medium served as non-toxic negative control. After the 48-hour incubation, the release of lactate dehydrogenase (LDH) in the cell culture supernatant was measured by a photometric method. The cells were then subjected to alkaline lysis and the protein content was measured by the Bradford method. The cells were fixed and stained with methylene blue to determine the cell count. After acidic extraction of the methylene blue, the dye content was ascertained by photometry and the extinction was compared with a standard curve in order to determine the cell count on the basis of the dye concentration. Results are shown at FIG. 12.

## Triton X 100
Bradford method
  Protein content relative to negative control: 6.8 % of the negative control value
Cell culture supernatant
  Specific LDH activity increase compared with the negative control: more than 31 fold
Methylene blue
  Cell count relative to negative control: 0.5 % of the negative control value
